# In PubChem BioAssay AID1918952 (Molecular Pharmacology Branch, DTP, NCI, 2023):
# System: LG0703-F948-PDC complex spheroid viability
# Assay: Anticancer human tumor LG0703-F948-PDC patient-derived lung adenocarcinoma cell line growth inhibition
# Conditions: for IC50: curve of first compound; for viability, T/C: stronger effect = lower value
# In short: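 Complex spheroids of tumor cells with HUVEC and human MSCs, exposed to iadademstat combined with other agents. Each agent tested in half-log steps from near clinical Cmax (else 10 microM top), DMSO ≤0.25%.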
# [1] = second compound 0.1 µM, first compound 0.000316 µM
# [2] = second compound 0.1 µM, first compound 0.001 µM
# [3] = second compound 0.1 µM, first compound 0.00316 µM
# [4] = second compound 0.1 µM, first compound 0.01 µM
# [5] = second compound 0.1 µM, first compound 0.0316 µM
# [6] = second compound 0.1 µM, first compound 0.1 µM
# [7] = second compound 0.316 µM, first compound 0.000316 µM
# [8] = second compound 0.316 µM, first compound 0.001 µM
# [9] = second compound 0.316 µM, first compound 0.00316 µM
# [10] = second compound 0.316 µM, first compound 0.01 µM
# [11] = second compound 0.316 µM, first compound 0.0316 µM
# [12] = second compound 0.316 µM, first compound 0.1 µM
# [13] = second compound 1 µM, first compound 0.000316 µM
# [14] = second compound 1 µM, first compound 0.001 µM
# [15] = second compound 1 µM, first compound 0.00316 µM
# [16] = second compound 1 µM, first compound 0.01 µM
# [17] = second compound 1 µM, first compound 0.0316 µM
# [18] = second compound 1 µM, first compound 0.1 µM
# [19] = second compound 3.16 µM, first compound 0.000316 µM
# [20] = second compound 3.16 µM, first compound 0.001 µM
# [21] = second compound 3.16 µM, first compound 0.00316 µM
# [22] = second compound 3.16 µM, first compound 0.01 µM
# [23] = second compound 3.16 µM, first compound 0.0316 µM
# [24] = second compound 3.16 µM, first compound 0.1 µM
# [25] = second compound 10 µM, first compound 0.000316 µM
# [26] = second compound 10 µM, first compound 0.001 µM
# [27] = second compound 10 µM, first compound 0.00316 µM
# [28] = second compound 10 µM, first compound 0.01 µM
# [29] = second compound 10 µM, first compound 0.0316 µM
# [30] = second compound 10 µM, first compound 0.1 µM
# [31] = second compound 0.1 µM, first compound 0.00949 µM
# [32] = second compound 0.1 µM, first compound 0.03 µM
# [33] = second compound 0.1 µM, first compound 0.0949 µM
# [34] = second compound 0.1 µM, first compound 0.3 µM
# [35] = second compound 0.1 µM, first compound 0.949 µM
# [36] = second compound 0.1 µM, first compound 3 µM
# [37] = second compound 0.316 µM, first compound 0.00949 µM
# [38] = second compound 0.316 µM, first compound 0.03 µM
# [39] = second compound 0.316 µM, first compound 0.0949 µM
# [40] = second compound 0.316 µM, first compound 0.3 µM
# [41] = second compound 0.316 µM, first compound 0.949 µM
# [42] = second compound 0.316 µM, first compound 3 µM
# [43] = second compound 1 µM, first compound 0.00949 µM
# [44] = second compound 1 µM, first compound 0.03 µM
# [45] = second compound 1 µM, first compound 0.0949 µM
# [46] = second compound 1 µM, first compound 0.3 µM
# [47] = second compound 1 µM, first compound 0.949 µM
# [48] = second compound 1 µM, first compound 3 µM
# [49] = second compound 3.16 µM, first compound 0.00949 µM
# [50] = second compound 3.16 µM, first compound 0.03 µM
# [51] = second compound 3.16 µM, first compound 0.0949 µM
# [52] = second compound 3.16 µM, first compound 0.3 µM
# [53] = second compound 3.16 µM, first compound 0.949 µM
# [54] = second compound 3.16 µM, first compound 3 µM
# [55] = second compound 10 µM, first compound 0.00949 µM
# [56] = second compound 10 µM, first compound 0.03 µM
# [57] = second compound 10 µM, first compound 0.0949 µM
# [58] = second compound 10 µM, first compound 0.3 µM
# [59] = second compound 10 µM, first compound 0.949 µM
# [60] = second compound 10 µM, first compound 3 µM
# 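Note: spheroids exposed to agents for seven days before readout.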
# 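Throughout, for viability, T/C: 100% = DMSO vehicle control wells as normalization base.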
smiles,measurement,setting,value
CC(C)CC(NC(=O)C(Cc1ccccc1)NC(=O)c1cnccn1)B(O)O (stereo not given) + NC1CC1c1ccc(-c2cccc(O)c2)cc1,IC50,second compound 0.1 µM,< 0.316 nM
same,IC50,second compound 0.316 µM,< 0.316 nM
same,IC50,second compound 1 µM,< 0.316 nM
same,IC50,second compound 3.16 µM,< 0.316 nM
same,IC50,second compound 10 µM,< 0.316 nM
same,"viability, T/C",[1],6.46%
same,"viability, T/C",[2],0.12%
same,"viability, T/C",[3],0.04%
same,"viability, T/C",[4],0.06%
same,"viability, T/C",[5],0.03%
same,"viability, T/C",[6],1.07%
same,"viability, T/C",[7],7.13%
same,"viability, T/C",[8],0.36%
same,"viability, T/C",[9],0.54%
same,"viability, T/C",[10],0.02%
same,"viability, T/C",[11],0.31%
same,"viability, T/C",[12],0.14%
same,"viability, T/C",[13],4.36%
same,"viability, T/C",[14],0.11%
same,"viability, T/C",[15],0.85%
same,"viability, T/C",[16],0.07%
same,"viability, T/C",[17],0.95%
same,"viability, T/C",[18],0.99%
same,"viability, T/C",[19],4.22%
same,"viability, T/C",[20],0.74%
same,"viability, T/C",[21],0.05%
same,"viability, T/C",[22],0.39%
same,"viability, T/C",[23],0.09%
same,"viability, T/C",[24],0.14%
same,"viability, T/C",[25],1.18%
same,"viability, T/C",[26],1.11%
same,"viability, T/C",[27],0.6%
same,"viability, T/C",[28],1.43%
same,"viability, T/C",[29],0.9%
same,"viability, T/C",[30],0.98%
CC(C)CC(NC(=O)CNC(=O)c1cc(Cl)ccc1Cl)B1OC(=O)CC(CC(=O)O)(C(=O)O)O1 (stereo not given) + NC1CC1c1ccc(-c2cccc(O)c2)cc1,IC50,second compound 0.1 µM,3.82 nM
same,IC50,second compound 0.316 µM,3.08 nM
same,IC50,second compound 1 µM,2.83 nM
same,IC50,second compound 3.16 µM,3.13 nM
same,IC50,second compound 10 µM,2.58 nM
same,"viability, T/C",[1],91.2%
same,"viability, T/C",[2],102%
same,"viability, T/C",[3],57.3%
same,"viability, T/C",[4],9.87%
same,"viability, T/C",[5],1.39%
same,"viability, T/C",[6],0.35%
same,"viability, T/C",[7],102%
same,"viability, T/C",[8],96.5%
same,"viability, T/C",[9],47.9%
same,"viability, T/C",[10],10.8%
same,"viability, T/C",[11],1.68%
same,"viability, T/C",[12],0.68%
same,"viability, T/C",[13],90.9%
same,"viability, T/C",[14],106%
same,"viability, T/C",[15],44.7%
same,"viability, T/C",[16],8.76%
same,"viability, T/C",[17],0.48%
same,"viability, T/C",[18],0.25%
same,"viability, T/C",[19],93.9%
same,"viability, T/C",[20],103%
same,"viability, T/C",[21],49.6%
same,"viability, T/C",[22],6.24%
same,"viability, T/C",[23],0.66%
same,"viability, T/C",[24],0.21%
same,"viability, T/C",[25],83.2%
same,"viability, T/C",[26],96.4%
same,"viability, T/C",[27],41.5%
same,"viability, T/C",[28],3.08%
same,"viability, T/C",[29],0.14%
same,"viability, T/C",[30],0.2%
Nc1ccccc1NC(=O)c1ccc(CNC(=O)OCc2cccnc2)cc1 + NC1CC1c1ccc(-c2cccc(O)c2)cc1,IC50,second compound 0.1 µM,94.8 nM
same,IC50,second compound 0.316 µM,90.7 nM
same,IC50,second compound 1 µM,79.7 nM
same,IC50,second compound 3.16 µM,99 nM
same,IC50,second compound 10 µM,63 nM
same,"viability, T/C",[31],96.4%
same,"viability, T/C",[32],85.7%
same,"viability, T/C",[33],49.5%
same,"viability, T/C",[34],14.9%
same,"viability, T/C",[35],1.36%
same,"viability, T/C",[36],0.66%
same,"viability, T/C",[37],86%
same,"viability, T/C",[38],74.1%
same,"viability, T/C",[39],50.6%
same,"viability, T/C",[40],7.98%
same,"viability, T/C",[41],0.56%
same,"viability, T/C",[42],0.86%
same,"viability, T/C",[43],80.9%
same,"viability, T/C",[44],76.7%
same,"viability, T/C",[45],45.1%
same,"viability, T/C",[46],8.53%
same,"viability, T/C",[47],0.73%
same,"viability, T/C",[48],0.8%
same,"viability, T/C",[49],87.2%
same,"viability, T/C",[50],80.4%
same,"viability, T/C",[51],52.2%
same,"viability, T/C",[52],6.55%
same,"viability, T/C",[53],0.23%
same,"viability, T/C",[54],0.32%
same,"viability, T/C",[55],95.3%
same,"viability, T/C",[56],68.7%
same,"viability, T/C",[57],42.5%
same,"viability, T/C",[58],7.86%
same,"viability, T/C",[59],0.67%
same,"viability, T/C",[60],0.19%
O=C(C=Cc1cccc(S(=O)(=O)Nc2ccccc2)c1)NO + NC1CC1c1ccc(-c2cccc(O)c2)cc1,IC50,second compound 0.1 µM,61.1 nM
same,IC50,second compound 0.316 µM,70.6 nM
same,IC50,second compound 1 µM,70.9 nM
same,IC50,second compound 3.16 µM,74.5 nM
same,IC50,second compound 10 µM,95.3 nM
same,"viability, T/C",[31],113%
same,"viability, T/C",[32],74.8%
same,"viability, T/C",[33],35.9%
same,"viability, T/C",[34],8.61%
same,"viability, T/C",[35],1.29%
same,"viability, T/C",[36],0.28%
same,"viability, T/C",[37],113%
same,"viability, T/C",[38],83.5%
same,"viability, T/C",[39],39.5%
same,"viability, T/C",[40],8.31%
same,"viability, T/C",[41],1.3%
same,"viability, T/C",[42],1.01%
same,"viability, T/C",[43],107%
same,"viability, T/C",[44],93.9%
same,"viability, T/C",[45],34.8%
same,"viability, T/C",[46],7.01%
same,"viability, T/C",[47],1.57%
same,"viability, T/C",[48],0.1%
same,"viability, T/C",[49],92.3%
same,"viability, T/C",[50],80.8%
same,"viability, T/C",[51],42.2%
same,"viability, T/C",[52],6.95%
same,"viability, T/C",[53],1.69%
same,"viability, T/C",[54],0.15%
same,"viability, T/C",[55],90%
same,"viability, T/C",[56],86.7%
same,"viability, T/C",[57],50%
same,"viability, T/C",[58],7.51%
same,"viability, T/C",[59],1.22%
same,"viability, T/C",[60],1.1%
O=C(c1cc(Cc2n[nH]c(=O)c3ccccc23)ccc1F)N1CCN(C(=O)C2CC2)CC1 + NC1CC1c1ccc(-c2cccc(O)c2)cc1,IC50,second compound 0.1 µM,> 10000 nM
same,IC50,second compound 0.316 µM,> 10000 nM
same,IC50,second compound 1 µM,> 10000 nM
same,IC50,second compound 3.16 µM,> 10000 nM
same,IC50,second compound 10 µM,> 10000 nM
same,"viability, T/C",[5],112%
same,"viability, T/C",[6],121%
same,"viability, T/C","second compound 0.1 µM, first compound 0.316 µM",114%
same,"viability, T/C","second compound 0.1 µM, first compound 1 µM",107%
same,"viability, T/C","second compound 0.1 µM, first compound 3.16 µM",92.6%
same,"viability, T/C","second compound 0.1 µM, first compound 10 µM",98.6%
same,"viability, T/C",[11],109%
same,"viability, T/C",[12],111%
same,"viability, T/C","second compound 0.316 µM, first compound 0.316 µM",124%
same,"viability, T/C","second compound 0.316 µM, first compound 1 µM",99%
same,"viability, T/C","second compound 0.316 µM, first compound 3.16 µM",95.2%
same,"viability, T/C","second compound 0.316 µM, first compound 10 µM",79.5%
same,"viability, T/C",[17],102%
same,"viability, T/C",[18],121%
same,"viability, T/C","second compound 1 µM, first compound 0.316 µM",134%
same,"viability, T/C","second compound 1 µM, first compound 1 µM",102%
same,"viability, T/C","second compound 1 µM, first compound 3.16 µM",92.1%
same,"viability, T/C","second compound 1 µM, first compound 10 µM",86%
same,"viability, T/C",[23],114%
same,"viability, T/C",[24],107%
same,"viability, T/C","second compound 3.16 µM, first compound 0.316 µM",122%
same,"viability, T/C","second compound 3.16 µM, first compound 1 µM",102%
same,"viability, T/C","second compound 3.16 µM, first compound 3.16 µM",106%
same,"viability, T/C","second compound 3.16 µM, first compound 10 µM",127%
same,"viability, T/C",[29],111%
same,"viability, T/C",[30],94.3%
same,"viability, T/C","second compound 10 µM, first compound 0.316 µM",110%
same,"viability, T/C","second compound 10 µM, first compound 1 µM",107%
same,"viability, T/C","second compound 10 µM, first compound 3.16 µM",106%
same,"viability, T/C","second compound 10 µM, first compound 10 µM",91.8%
